How the values were obtained:
[1] = Cmax in human; format: ADME, organism-based; conditions: in vivo
[2] = target: T1, Multidrug and toxin extrusion protein 2 (Homo sapiens, UniProt Q86VL8)
T1 sequence (Q86VL8 whole entry): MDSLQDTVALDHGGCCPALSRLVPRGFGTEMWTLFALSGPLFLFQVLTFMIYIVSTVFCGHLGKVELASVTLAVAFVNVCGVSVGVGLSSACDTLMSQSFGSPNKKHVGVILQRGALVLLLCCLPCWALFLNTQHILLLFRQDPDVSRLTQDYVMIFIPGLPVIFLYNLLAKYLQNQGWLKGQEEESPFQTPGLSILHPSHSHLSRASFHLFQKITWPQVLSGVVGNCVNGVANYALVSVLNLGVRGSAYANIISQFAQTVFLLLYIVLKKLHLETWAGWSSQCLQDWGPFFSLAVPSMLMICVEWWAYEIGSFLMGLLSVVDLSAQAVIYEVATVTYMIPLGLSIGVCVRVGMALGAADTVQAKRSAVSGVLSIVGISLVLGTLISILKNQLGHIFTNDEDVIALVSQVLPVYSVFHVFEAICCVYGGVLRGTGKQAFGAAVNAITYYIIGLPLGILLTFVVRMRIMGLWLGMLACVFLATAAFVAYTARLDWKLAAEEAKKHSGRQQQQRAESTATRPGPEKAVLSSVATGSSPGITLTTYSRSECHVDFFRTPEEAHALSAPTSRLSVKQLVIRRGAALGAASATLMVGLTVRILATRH
Description: Inhibition of human MATE2-K expressed in HEK-293-Flp-In cells incubated for 3 mins by ASP+ substrate uptake assay

[3] = Protein binding in human plasma; format: ADME, cell-free; conditions: read-out: PPB (converted)
[4] = target: T2, Solute carrier family 22 member 2 (Homo sapiens, UniProt O15244); format: ADME, cell-based
T2 sequence (O15244 whole entry): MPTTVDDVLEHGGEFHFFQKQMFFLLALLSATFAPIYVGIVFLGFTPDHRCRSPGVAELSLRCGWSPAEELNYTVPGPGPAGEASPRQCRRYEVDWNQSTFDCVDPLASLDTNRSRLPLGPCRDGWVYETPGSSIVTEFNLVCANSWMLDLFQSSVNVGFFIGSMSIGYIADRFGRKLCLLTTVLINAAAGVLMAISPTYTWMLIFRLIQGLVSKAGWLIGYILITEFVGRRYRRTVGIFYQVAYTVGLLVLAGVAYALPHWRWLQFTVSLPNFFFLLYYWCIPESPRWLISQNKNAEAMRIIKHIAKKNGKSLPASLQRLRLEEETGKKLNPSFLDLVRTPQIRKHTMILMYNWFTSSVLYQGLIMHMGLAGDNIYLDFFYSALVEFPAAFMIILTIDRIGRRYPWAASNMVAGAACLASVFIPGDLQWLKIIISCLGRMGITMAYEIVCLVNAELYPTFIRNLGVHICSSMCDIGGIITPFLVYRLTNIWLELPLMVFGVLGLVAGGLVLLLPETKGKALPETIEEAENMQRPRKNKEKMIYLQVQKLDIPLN
Description: Inhibition of human OCT2 expressed in HEK-293-Flp-In cells incubated for 3 mins by ASP+ substrate uptake assay

[5] = target: T3, Solute carrier family 22 member 1 (Homo sapiens, UniProt O15245); format: ADME, cell-based
T3 sequence (O15245 whole entry): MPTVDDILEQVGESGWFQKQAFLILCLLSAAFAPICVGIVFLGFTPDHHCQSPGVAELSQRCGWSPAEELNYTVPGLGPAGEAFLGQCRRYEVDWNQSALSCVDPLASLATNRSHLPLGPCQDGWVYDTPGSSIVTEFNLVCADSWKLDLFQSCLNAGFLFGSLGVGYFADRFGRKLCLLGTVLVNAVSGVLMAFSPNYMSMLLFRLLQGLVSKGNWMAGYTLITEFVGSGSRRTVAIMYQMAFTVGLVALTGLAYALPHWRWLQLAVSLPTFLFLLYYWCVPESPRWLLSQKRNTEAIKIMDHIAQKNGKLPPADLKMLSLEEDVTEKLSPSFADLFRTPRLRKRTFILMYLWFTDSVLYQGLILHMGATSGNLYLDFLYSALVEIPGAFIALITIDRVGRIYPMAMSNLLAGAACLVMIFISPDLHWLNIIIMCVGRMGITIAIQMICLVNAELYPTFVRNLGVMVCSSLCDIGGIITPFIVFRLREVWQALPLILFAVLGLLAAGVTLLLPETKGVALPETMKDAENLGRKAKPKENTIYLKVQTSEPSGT
Description: Inhibition of human OCT1 expressed in HEK-293-Flp-In cells incubated for 3 mins by ASP+ substrate uptake assay

[6] = cells; conditions: Homo sapiens, 0.05 h
Description: Inhibition of human OCT2 A270S mutant expressed in HEK-293-Flp-In cells incubated for 3 mins by ASP+ substrate uptake assay

[7] = target: T4, Multidrug and toxin extrusion protein 1 (Homo sapiens, UniProt Q96FL8)
T4 sequence (Q96FL8 whole entry): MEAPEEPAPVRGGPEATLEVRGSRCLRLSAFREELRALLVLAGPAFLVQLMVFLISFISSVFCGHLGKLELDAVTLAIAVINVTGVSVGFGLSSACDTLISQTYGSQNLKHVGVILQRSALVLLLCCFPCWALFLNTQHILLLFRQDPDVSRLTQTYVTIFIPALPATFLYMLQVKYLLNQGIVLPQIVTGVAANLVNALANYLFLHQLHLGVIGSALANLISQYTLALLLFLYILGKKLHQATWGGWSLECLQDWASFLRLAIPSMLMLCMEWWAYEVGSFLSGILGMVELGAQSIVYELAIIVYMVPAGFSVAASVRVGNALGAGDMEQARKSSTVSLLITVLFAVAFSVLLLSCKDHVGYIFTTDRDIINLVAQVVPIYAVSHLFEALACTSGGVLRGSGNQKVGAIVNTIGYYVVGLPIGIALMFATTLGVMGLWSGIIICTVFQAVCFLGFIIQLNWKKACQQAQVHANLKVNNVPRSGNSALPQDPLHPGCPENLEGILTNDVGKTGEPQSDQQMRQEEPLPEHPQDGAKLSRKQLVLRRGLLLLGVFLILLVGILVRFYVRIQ
Description: Inhibition of human MATE1 expressed in HEK-293-Flp-In cells incubated for 3 mins by ASP+ substrate uptake assay

Structure (SMILES) | Cmax [1] [µM] | IC50 [2] [µM] | fraction unbound [3] | IC50 [4] [µM] | IC50 [5] [µM] | IC50 [6] [µM] | IC50 [7] [µM]
CN/C(=N\CCSCc1nc[nH]c1C)NC#N [CIMETIDINE] | 11.9 | 39 | 0.81 | 23 | > 100 | 20 | 
OCCN(CCO)c1nc(N2CCCCC2)c2nc(N(CCO)CCO)nc(N3CCCCC3)c2n1 [DIPYRIDAMOLE] |  |  |  |  | 81 |  | 
CC(C)N(CCC(C(N)=O)(c1ccccc1)c1ccccn1)C(C)C (centres undefined) [DISOPYRAMIDE] |  | > 100 | 0.5 |  |  |  | 66
CN(C)CCCN1c2ccccc2CCc2ccccc21 [IMIPRAMINE] |  | > 100 | 0.1 |  | 37 |  | 10
Cc1nccn1CC1CCc2c(c3ccccc3n2C)C1=O (centres undefined) [ONDANSETRON] | 0.13 |  |  |  | > 100 |  | 
Nc1c2c(nc3ccccc13)CCCC2 [TACRINE] |  | > 100 | 0.45 |  | 83 |  | 
